Results: patent US20250230147A1, “LACTAMS AS CBL-B INHIBITORS” (Genentech, Inc., priority 2021, published 2025)
pIC50: −log10 of the molar value.

How the values were obtained:
c-Cbl = c-Cbl (Homo sapiens (Human), UniProt P22681); test: C-Cbl LCK Ub TR-FRET assay (c-cbl Lck HTRF); type: biochemical; details: for (fold-selectivity): C-cbl Lck HTRF IC50 relative to Cbl-b Lck HTRF IC50
Summary of the method: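 After the ubiquitination reaction, detection mixture was added and plates incubated 20 min at room temperature before reading. IC50 values were calculated with wells lacking LCK as the low control and DMSO as the high control.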

Cbl-b = Cbl-b (Homo sapiens (Human), UniProt Q13191); test: Cbl-b LCK Ub TR-FRET assay (Cbl-b Lck HTRF); type: biochemical
Summary of the method: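 Biotin-Cbl-b preincubated with compound (10-point 3-fold series) 60 min, then His-LCK with 1 mM ATP (2× mixture) added for 90 min at room temperature. Ubiquitination detected by TR-FRET using HA-ubiquitin/UBE2D2 adduct, anti-HA-D2 and streptavidin-Eu; IC50 normalised to no-LCK and DMSO controls.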

Cbl-b, sequence (Q13191 40-426): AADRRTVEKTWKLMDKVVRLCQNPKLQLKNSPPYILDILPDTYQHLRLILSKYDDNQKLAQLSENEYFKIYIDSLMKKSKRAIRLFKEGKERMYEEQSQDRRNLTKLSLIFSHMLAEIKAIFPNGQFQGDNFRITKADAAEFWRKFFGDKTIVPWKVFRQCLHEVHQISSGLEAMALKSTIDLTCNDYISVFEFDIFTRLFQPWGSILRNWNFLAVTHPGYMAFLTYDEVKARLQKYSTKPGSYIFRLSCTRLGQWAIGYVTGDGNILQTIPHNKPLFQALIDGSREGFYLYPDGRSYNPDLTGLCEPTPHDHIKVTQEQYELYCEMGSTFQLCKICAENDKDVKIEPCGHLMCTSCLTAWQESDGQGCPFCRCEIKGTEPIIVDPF
c-Cbl, sequence (P22681 47-435): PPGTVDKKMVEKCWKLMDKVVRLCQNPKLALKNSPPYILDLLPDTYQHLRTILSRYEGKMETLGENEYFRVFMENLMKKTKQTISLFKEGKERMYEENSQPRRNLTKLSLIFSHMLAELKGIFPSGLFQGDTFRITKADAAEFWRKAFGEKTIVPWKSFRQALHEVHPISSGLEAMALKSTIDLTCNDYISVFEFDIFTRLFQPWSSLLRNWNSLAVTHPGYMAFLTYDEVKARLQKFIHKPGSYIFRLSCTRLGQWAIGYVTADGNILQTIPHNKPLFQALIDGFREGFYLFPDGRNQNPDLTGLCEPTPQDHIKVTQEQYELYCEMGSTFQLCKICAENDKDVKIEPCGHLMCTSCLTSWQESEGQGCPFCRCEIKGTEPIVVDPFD

pIC50 (c-Cbl) | (fold-selectivity) (c-Cbl) | pIC50 (Cbl-b) | fold of selectivity (Cbl-b; Cbl-b over c-Cbl, Lck HTRF IC50) | SMILES
5.28 | 5.6x | 6.04 | 5.6x | COC[C@H]1CCCN1Cc1cc2c(c(C(F)(F)F)c1)CN(c1cccc(C3([C@H](F)c4nncn4C)COC3)c1)C2=O [Compound 156, 2-(3-(3-((S)-fluoro(4-methyl-4H-1,2,4-triazol-3-yl)methyl)oxetan-3-yl)phenyl)-6-(((R)-2-(methoxymethyl)pyrrolidin-1-yl)methyl)-4-(trifluoromethyl)isoindolin-1-one]
6.96 | 1.6x | 7.14 |  | CN(CCC(C)(C)O)Cc1cc2c(c(C(F)(F)F)c1)CN(c1cccc(C3([C@@H](F)c4nncn4C)COC3)c1)C2=O [Compound 157, (R)-2-(3-(3-(fluoro(4-methyl-4H-1,2,4-triazol-3-yl)methyl)oxetan-3-yl)phenyl)-6-(((3-hydroxy-3-methylbutyl)(methyl)amino)methyl)-4-(trifluoromethyl)isoindolin-1-one]
6.55 | 1.0x | 6.57 |  | CN(CCC(C)(C)O)Cc1cc2c(c(C(F)(F)F)c1)CN(c1cccc(C3([C@H](F)c4nncn4C)COC3)c1)C2=O [Compound 158, (S)-2-(3-(3-(fluoro(4-methyl-4H-1,2,4-triazol-3-yl)methyl)oxetan-3-yl)phenyl)-6-(((3-hydroxy-3-methylbutyl)(methyl)amino)methyl)-4-(trifluoromethyl)isoindolin-1-one]
5.92 | 3.4x | 6.46 |  | COC[C@@H]1CCCN1Cc1cc2c(c(C(F)(F)F)c1)CN(c1cccc(C3([C@@H](F)c4nncn4C)COC3)c1)C2=O [Compound 159, 2-(3-(3-((R)-fluoro(4-methyl-4H-1,2,4-triazol-3-yl)methyl)oxetan-3-yl)phenyl)-6-(((S)-2-(methoxymethyl)pyrrolidin-1-yl)methyl)-4-(trifluoromethyl)isoindolin-1-one]
5.64 | 1.7x | 5.85 |  | COC[C@@H]1CCCN1Cc1cc2c(c(C(F)(F)F)c1)CN(c1cccc(C3([C@H](F)c4nncn4C)COC3)c1)C2=O [Compound 160, 2-(3-(3-((S)-fluoro(4-methyl-4H-1,2,4-triazol-3-yl)methyl)oxetan-3-yl)phenyl)-6-(((S)-2-(methoxymethyl)pyrrolidin-1-yl)methyl)-4-(trifluoromethyl)isoindolin-1-one]
6.96 | 1.7x | 7.21 |  | Cn1cnnc1[C@H](F)C1(c2cccc(N3Cc4c(cc(CN5CC(C)(O)C5)cc4C(F)(F)F)C3=O)c2)COC1 [Compound 161, (R)-2-(3-(3-(fluoro(4-methyl-4H-1,2,4-triazol-3-yl)methyl)oxetan-3-yl)phenyl)-6-((3-hydroxy-3-methylazetidin-1-yl)methyl)-4-(trifluoromethyl)isoindolin-1-one]
6.48 | 1.7x | 6.72 |  | Cn1cnnc1[C@@H](F)C1(c2cccc(N3Cc4c(cc(CN5CC(C)(O)C5)cc4C(F)(F)F)C3=O)c2)COC1 [Compound 162, (S)-2-(3-(3-(fluoro(4-methyl-4H-1,2,4-triazol-3-yl)methyl)oxetan-3-yl)phenyl)-6-((3-hydroxy-3-methylazetidin-1-yl)methyl)-4-(trifluoromethyl)isoindolin-1-one]
6.62 | 1.9x | 6.89 |  | Cn1cnnc1[C@H](F)C1(c2cccc(N3Cc4c(cc(CN5CC(S(C)(=O)=O)C5)cc4C(F)(F)F)C3=O)c2)COC1 [Compound 163, (R)-2-(3-(3-(fluoro(4-methyl-4H-1,2,4-triazol-3-yl)methyl)oxetan-3-yl)phenyl)-6-((3-(methylsulfonyl)azetidin-1-yl)methyl)-4-(trifluoromethyl)isoindolin-1-one]
6.19 | 1.8x | 6.46 |  | Cn1cnnc1[C@@H](F)C1(c2cccc(N3Cc4c(cc(CN5CC(S(C)(=O)=O)C5)cc4C(F)(F)F)C3=O)c2)COC1 [Compound 164, (S)-2-(3-(3-(fluoro(4-methyl-4H-1,2,4-triazol-3-yl)methyl)oxetan-3-yl)phenyl)-6-((3-(methylsulfonyl)azetidin-1-yl)methyl)-4-(trifluoromethyl)isoindolin-1-one]
7.14 | 2.1x | 7.46 |  | Cn1cnnc1[C@H](F)C1(c2cccc(N3Cc4c(cc(CN5CC6(CCC6)C5)cc4C(F)(F)F)C3=O)c2)COC1 [Compound 165, (R)-6-(2-azaspiro[3.3]heptan-2-ylmethyl)-2-(3-(3-(fluoro(4-methyl-4H-1,2,4-triazol-3-yl)methyl)oxetan-3-yl)phenyl)-4-(trifluoromethyl)isoindolin-1-one]
6.51 | 1.8x | 6.77 |  | Cn1cnnc1[C@@H](F)C1(c2cccc(N3Cc4c(cc(CN5CC6(CCC6)C5)cc4C(F)(F)F)C3=O)c2)COC1 [Compound 166, (S)-6-(2-azaspiro[3.3]heptan-2-ylmethyl)-2-(3-(3-(fluoro(4-methyl-4H-1,2,4-triazol-3-yl)methyl)oxetan-3-yl)phenyl)-4-(trifluoromethyl)isoindolin-1-one]
6.82 | 2.5x | 7.23 |  | CCC1(O)CN(Cc2cc3c(c(C(F)(F)F)c2)CN(c2cccc(C4([C@@H](F)c5nncn5C)COC4)c2)C3=O)C1 [Compound 167, (R)-6-((3-ethyl-3-hydroxyazetidin-1-yl)methyl)-2-(3-(3-(fluoro(4-methyl-4H-1,2,4-triazol-3-yl)methyl)oxetan-3-yl)phenyl)-4-(trifluoromethyl)isoindolin-1-one]
6.42 | 2.1x | 6.74 |  | CCC1(O)CN(Cc2cc3c(c(C(F)(F)F)c2)CN(c2cccc(C4([C@H](F)c5nncn5C)COC4)c2)C3=O)C1 [Compound 168, (S)-6-((3-ethyl-3-hydroxyazetidin-1-yl)methyl)-2-(3-(3-(fluoro(4-methyl-4H-1,2,4-triazol-3-yl)methyl)oxetan-3-yl)phenyl)-4-(trifluoromethyl)isoindolin-1-one]
7.00 | 2.2x | 7.36 |  | C=CC1(O)CN(Cc2cc3c(c(C(F)(F)F)c2)CN(c2cccc(C4([C@@H](F)c5nncn5C)COC4)c2)C3=O)C1 [Compound 169, (R)-2-(3-(3-(fluoro(4-methyl-4H-1,2,4-triazol-3-yl)methyl)oxetan-3-yl)phenyl)-6-((3-hydroxy-3-vinylazetidin-1-yl)methyl)-4-(trifluoromethyl)isoindolin-1-one]
6.44 | 2.5x | 6.85 |  | C=CC1(O)CN(Cc2cc3c(c(C(F)(F)F)c2)CN(c2cccc(C4([C@H](F)c5nncn5C)COC4)c2)C3=O)C1 [Compound 170, (S)-2-(3-(3-(fluoro(4-methyl-4H-1,2,4-triazol-3-yl)methyl)oxetan-3-yl)phenyl)-6-((3-hydroxy-3-vinylazetidin-1-yl)methyl)-4-(trifluoromethyl)isoindolin-1-one]
